For one molecule, inhibition results are on record in publication PMC6934184, “Selective DNA-PKcs inhibition extends the therapeutic index of localized radiotherapy and chemotherapy” (The Journal of Clinical Investigation, 2019).

The target of the assay is T1, PDK1 (Homo sapiens, UniProt O15530).
T1 construct: purchased Thermo Fisher Scientific (Life Technologies) SelectScreen
Description: SelectScreen Z'LYTE. It is filed as biochemical. In short, it runs like this:
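SelectScreen broad panel; activity (Z'LYTE, Adapta) plus binding formats. ATP: Km app for CSF1R Z'LYTE; 10 for CAMK1 Adapta. Readout = % per kinase.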

T1 sequence (O15530 whole entry): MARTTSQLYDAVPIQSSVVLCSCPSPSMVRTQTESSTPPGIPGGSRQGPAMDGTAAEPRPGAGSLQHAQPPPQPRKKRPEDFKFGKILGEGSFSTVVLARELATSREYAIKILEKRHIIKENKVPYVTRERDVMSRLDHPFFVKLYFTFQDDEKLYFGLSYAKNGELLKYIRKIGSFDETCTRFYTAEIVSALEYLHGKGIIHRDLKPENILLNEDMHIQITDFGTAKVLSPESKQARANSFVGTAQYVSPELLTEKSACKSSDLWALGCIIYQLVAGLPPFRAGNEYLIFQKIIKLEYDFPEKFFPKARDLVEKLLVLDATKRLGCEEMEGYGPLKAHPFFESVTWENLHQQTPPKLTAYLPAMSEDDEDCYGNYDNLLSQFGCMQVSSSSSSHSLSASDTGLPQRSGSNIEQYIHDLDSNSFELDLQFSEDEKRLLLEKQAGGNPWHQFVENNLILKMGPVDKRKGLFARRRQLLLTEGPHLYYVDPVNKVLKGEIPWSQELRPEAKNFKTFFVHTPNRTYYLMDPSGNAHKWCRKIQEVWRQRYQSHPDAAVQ

Regarding `CN(C(=O)CN1CCOCC1)c1ccc2sc3c(-c4cccc5c(=O)cc(N6CC7CCC(C6)O7)oc45)cccc3c2c1` [NU5455], the inhibition at 1 µM is -7.3%.
